Measurements: paper PMC8582824, “Targeting DDX3X Helicase Activity with BA103 Shows Promising Therapeutic Effects in Preclinical Glioblastoma Models” (Cancers, 2021)

How the values were obtained:
[1] = Parallel artificial membrane permeability assay (PAMPA); type: in vitro ADME; settings: for Papp at 5 h, 0.5 mM: pH 7.4, read-out: AppP (apparent permeability)
Protocol: (§1) Preliminary in vitro ADME analysis was performed to early evaluate the pharmacokinetic (PK) profile of our compounds (Figure 8). Aqueous solubility was calculated by LC-MS-MS analysis. An aliquot of 1 mg of compound was stirred for 24 h at 27 °C in 1 mL of water. The mixture was filtered, and the quantity of solubilized compound was determined. Passive permeability was determined using parallel artificial membrane permeability assay (PAMPA). Microsomal metabolic stability was determined by LC-UV-MS analysis by incubating compounds with human liver microsomes at 37 °C for 60 min (for details, see the Supporting Information).
Chemicals. All solvents, reagents, were from Sigma-Aldrich Srl (Milan, Italy). Dodecane was purchased from Fluka (Milan, Italy). Pooled Male Donors 20 mg mL-1 HLM were from BD Gentest-Biosciences (San Jose, California). Milli-Q quality water (Millipore, Milford, MA, USA) was used. Hydrophobic filter plates (MultiScreen-IP, Clear Plates, 0.45 μm diameter pore size), 96-well microplates, and 96-well UV-transparent microplates were obtained from Millipore (Bedford, MA, USA). […]
Parallel Artificial Membrane Permeability Assay (PAMPA):
Donor solution (0.5 mM) was prepared by diluting 1 mM dimethylsulfoxide (DMSO) compound stock solution using phosphate buffer (pH 7.4, 0.025 M). Filters were coated with 5 μL of a 1% (w/v) dodecane solution of phosphatidylcholine prepared from CHCl3 solution 10% w/v, for intestinal permeability. Donor solution (150 μL) was added to each well of the filter plate. To each well of the acceptor plate were added 300 μL of solution (50% DMSO in phosphate buffer). All compounds were tested in three different plates on different days. The sandwich was incubated for 5 h at room temperature under gentle shaking. After the incubation time, the plates were separated, and samples were taken from both receiver and donor sides and analyzed using LC with UV detection at 280 nm.
LC analysis were performed with a Varian Prostar HPLC system (Varian Analytical Instruments, USA) equipped with a binary pump with a manual injection valve and model Prostar 325 UV-VIS Detector.
Chromatographic separation were conducted using a Polaris C18-A column (150-4.6 mm, 5 μm particle size) at a flow rate of 0.8 mL min-1 with a mobile phase composed of 60% ACN/40% H2O.
Permeability (Papp) for PAMPA was calculated according to the following equation, obtained from Wohnsland and Faller and Sugano et al. equation with some modification in order to obtain permeability […]
where VA is the volume in the acceptor well, VD is the volume in the donor well (cm3), A is the “effective area” of the membrane (cm2), t is the incubation time (s) and r the ratio between drug concentration in the acceptor and equilibrium concentration of the drug in the total volume (VD+VA). Drug concentration is estimated by using the peak area integration.
Membrane retentions (%) were calculated according to the following equation: […]
where r is the ratio between drug concentration in the acceptor and equilibrium concentration, D, A, and Eq represented drug concentration in the donor, acceptor and equilibrium solution, respectively. […]
15 min. The flow rate was 0.2 mL min-1 and injection volume was 5 μL. The instrument operated in positive mode and parameters were: detector 1850 V, drying gas pressure 25.0 psi, desolvation temperature 300.0 °C, nebulizing gas 40.0 psi, needle 5000 V and shield 600 V. Nitrogen was used as nebulizer gas and drying gas.
Collision induced dissociation was performed using Argon as the collision gas at a pressure of 1.8 mTorr in […]
(§2) Microsomal Stability Assay.
(§3) Each compound in DMSO solution was incubated at 37 °C for 60 min in 125 mM phosphate buffer (pH 7.4), 5 μL of human liver microsomal protein (0.2 mg mL-1), in the presence of a NADPH-generating system at a final […]
reaction was stopped by cooling on ice and adding 1.0 mL of acetonitrile. The reaction mixtures were then centrifuged, and the parent drug and metabolites were subsequently determined by LC-UV-MS. […]

[2] = Human liver microsomal metabolic stability; type: in vitro ADME; settings: 37 °C, 60 min
Protocol: as §1, with “Information). […]” for “Information).”
as §2, §3
reaction was stopped by cooling on ice and adding 1.0 mL of acetonitrile. The reaction mixtures were then centrifuged, and the parent drug and metabolites were subsequently determined by LC-UV-MS.
Chromatographic analysis was performed with an Agilent 1100 LC/MSD VL system (G1946C) (Agilent Technologies, Palo Alto, CA) constituted by a vacuum solvent degassing unit, a binary high-pressure gradient pump, an 1100 series UV detector, and an 1100 MSD model VL benchtop mass spectrometer.
Chromatographic separation was obtained using a Varian Polaris C18-A column (150-4.6 mm, 5 μm particle size) and gradient elution: eluent A being ACN and eluent B consisting of water. The analysis started with 2% […]
flow rate was 0.8 mL min-1 and injection volume was 20 μL.
The Agilent 1100 series mass spectra detection (MSD) single-quadrupole instrument was equipped with the orthogonal spray API-ES (Agilent Technologies, Palo Alto, CA). Nitrogen was used as nebulizing and drying gas. The pressure of the nebulizing gas, the flow of the drying gas, the capillary voltage, the fragmentor voltage, and the vaporization temperature were set at 40 psi, 9 L/min, 3000 V, 70 V, and 350 °C, respectively.
UV detection was monitored at 280 nm. The LC-ESI-MS determination was performed by operating the MSD in the positive ion mode. Spectra were acquired over the scan range m/z 100-1500 using a step size of 0.1 u.
The percentage of not metabolized compound was calculated by comparison with reference solutions

AppP (apparent permeability) [1] | Memb. Ret. % (membrane retention) [1] [%] | Papp at 5 h, 0.5 mM [1] [×10⁻⁶ cm/s] | HLM Stability ± SD (Human Liver Microsomal Metabolic Stability) [2] [%] | SMILES
good values of passive permeability | 10.3 | 9.75 | 88.9 ± 0.9 | CCCCc1nnc(-c2ccc(NC(=O)Nc3ccccc3C(F)(F)F)cc2)o1 [Compound 3, 1-(4-(5-Butyl-1,3,4-oxadiazol-2-yl)phenyl)-3-(2-(trifluoromethyl)phenyl)urea]
very low passive permeability | 2.3 | < 0.1 | 97.9 ± 0.3 | CCCCc1nnc(-c2ccc(NC(=O)Nc3ccccc3C(F)(F)F)cc2)[nH]1 [Compound 4, 1-(4-(5-Butyl-4H-1,2,4-triazol-3-yl)phenyl)-3-(2-(trifluoromethyl)phenyl)urea]

Second part, the molecule before the results:

SMILES | AppP (apparent permeability) [1] | Memb. Ret. % (membrane retention) [1] [%] | Papp at 5 h, 0.5 mM [1] [×10⁻⁶ cm/s] | HLM Stability ± SD (Human Liver Microsomal Metabolic Stability) [2] [%]
CCCCc1cn(-c2ccc(NC(=O)Nc3ccccc3C(F)(F)F)cc2)nn1 [BA103, 1-(4-(4-Butyl-1H-1,2,3-triazol-1-yl)phenyl)-3-(2-(trifluoromethyl)phenyl)urea] | good values of passive permeability | 23.9 | 7.47 | 97.0 ± 0.5
CCCCn1nnc(-c2ccc(NC(=O)Nc3ccccc3C(F)(F)F)cc2)n1 [Compound 6, 1-(4-(2-Butyl-2H-tetrazol-5-yl)phenyl)-3-(2-(trifluoromethyl)phenyl)urea] | good values of passive permeability | 21.6 | 10.2 | 90.32 ± 0.7
CC(C)CCc1cn(-c2ccc(NC(=O)Nc3cccc4cnccc34)cn2)nn1 [Compound 10, 1-(6-(4-Isopentyl-1H-1,2,3-triazol-1-yl)pyridin-3-yl)-3-(isoquinolin-5-yl)urea] |  | 11.3 | 1.21 | 91.31 ± 0.1
CCCCc1cn(-c2ccc(NC(=O)Nc3ccccc3C)cc2)nn1 [Compound 1, reference compound] | 2.86 ×10⁻⁶ cm/s | 19.1 |  | 99.0 ± 0.6
